The text below walks through data of US5242684A, “Antimicrobial, low toxicity, non-irritating composition comprising a blend of bis-quaternary ammonium compounds coprecipitated with a copolymer of vinylpyrrolidone and an acrylamido or vinyl quaternary ammonium monomer” (ISP Investments Inc., priority 1991, dated 1993).

One data set has as its system E.Coli. In words: Minimum Inhibitory Concentration (MIC) against E.Coli. It is filed as cell-based. As to conditions: Gram negative, coprecipitates at 50:50 wt. ratio with GAFQUAT HS-100, unit assumed. An excerpt:
The antimicrobial activity of the products herein are represented by their Minimum Inhibitory Concentration (MIC) against E.Coli, a Gram negative microorganism. Their effect on skin is indicated by an Irritation Index. These properties are presented in the Table below for the individual compounds in blend D and the invention composition of several D, H and L blend compositions coprecipitated in a 50:50 wt. ratio with GAFQUAT® HS-100.

The next data set in a line: LD50 toxicity (on rats). As to conditions: rat, in vivo.

The MIC is the smallest concentration in the dilution series that meets the test's criterion for growth inhibition. Broadly, the LD50 is the dose at which mortality reaches 50%. Consider `CCCCCCCCCCCC[N+](C)(C)CCOCCOCC[N+](C)(C)CCCCCCCCCCCC` [A compound in D blend], for which the minimal inhibitory concentration (MIC) in the data set on E.Coli is 100 µg/mL. The same compound registered an LD50 in “LD50 toxicity (on rats)” of 300 mg/kg.
The corresponding values for `CCCCCCCCCCCCCC[N+](C)(C)CCOCCOCC[N+](C)(C)CCCCCCCCCCCC` [B compound in D blend] are 50 µg/mL and 700 mg/kg.
The corresponding values for `CCCCCCCCCCCCCC[N+](C)(C)CCOCCOCC[N+](C)(C)CCCCCCCCCCCCCC` [C compound in D blend] are 125 µg/mL and 950 mg/kg.
